Experimental findings from patent publication US6291485A, “4,5-dihydro-[1H]-benz[g]indazole-3-carboxylic acid derivatives” (Teikoku Hormone Mfg. Co., Ltd., priority 1997, dated 2001) are described below.

One test has as its target T1, ETA receptor (Sus scrofa, UniProt Q29010).
T1 construct: crude receptor membrane fraction from the porcine thoracic aorta; from tissue; host or cells: porcine thoracic aorta, crude membrane fraction
T1 sequence (Q29010 21-427): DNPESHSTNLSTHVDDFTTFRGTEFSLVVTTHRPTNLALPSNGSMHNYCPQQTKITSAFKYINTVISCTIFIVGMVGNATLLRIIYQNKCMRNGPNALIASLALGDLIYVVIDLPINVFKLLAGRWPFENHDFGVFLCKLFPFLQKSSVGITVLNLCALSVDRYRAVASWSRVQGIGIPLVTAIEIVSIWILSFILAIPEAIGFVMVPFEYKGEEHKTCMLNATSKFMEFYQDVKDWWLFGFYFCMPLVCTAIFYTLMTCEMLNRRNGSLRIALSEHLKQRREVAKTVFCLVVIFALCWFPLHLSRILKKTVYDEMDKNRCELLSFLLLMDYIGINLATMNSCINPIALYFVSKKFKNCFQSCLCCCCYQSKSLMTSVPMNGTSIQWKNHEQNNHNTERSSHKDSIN
Nature of the test: binding of 125I-ET-1 to crude receptor membrane fraction from the porcine thoracic aorta (ETA). The following applies: porcine thoracic aorta membranes, 125I-ET-1, 25° C., 120 minutes, pH 7.0. How it is done: (§1) (1) Measurement of Antagonism to Endothelin Receptors
(§2) Among the endothelin (ET) receptor subtypes, the binding of ET to the ETA and ETB subtypes was measured by using a crude receptor membrane fraction from the porcine thoracic aorta and a crude receptor membrane fraction from the human placenta, respectively. The tissue (about 40 g) as washed, minced with scissors, and homogenized in 4 volumes of solution A [20 mM HEPES (N-2-hydroxyethylpiperazine-N'-2-ethanesulfonic acid), 3 mM EGTA (ethylene glycol bis(β-aminoethyl ether)-N,N,N',N'-tetraacetic acid), 5 mM EDTA (ethylenediaminetetraacetic acid), 2 μg/ml aprotinin, 3 μg/ml leupeptin, 3 μg/ml pepstatin A, 0.25 mg/ml bacitracin, 0.25 M sucrose] by means of an Ultra-turrax. The resulting homogenate was centrifuged at 8,000 g for 20 minutes, and the supernatant was further centrifuged at 80,000 g for 60 minutes. The precipitate was suspended in solution A and used as a crude receptor membrane fraction, which was divided into portions and stored in a frozen state at -70° C. As a radioligand, 325 Bq of ^125 I-ET-1 (81.4 TBq/mmol; manufactured by DuPont-New England Nuclear, Boston, Mss., U.S.A) was placed in a test tube. Then, the crude receptor membrane fraction (20 μg as protein) and a test compound were added thereto. Nonspecific binding was measured by the addition of 125 nM ET-1. The reaction was carried out in solution B [30 mM HEPES, 0.15 M NaCl, 5 mM MgCl2, 0.5 mg/ml bacitracin, 1 mg/ml bovine serum albumin, pH 7.0) at 25° C. for 120 minutes. In order to separate the free radioactive ligand from the membrane-bound one, the reaction mixture was quickly filtered through a glass filter treated with 0.3% polyethylene-imine (GF/C; manufactured by Whatman Inc., U.S.A.) and washed twice with ice-cold solution B. Thereafter, the radioactivity remaining on the filter was measured with a gamma counter.

In a further test the target is T2, ETB receptor (Homo sapiens, UniProt P24530).
T2 construct: a crude receptor membrane fraction from the human placenta; from tissue; host or cells: human placenta, crude membrane fraction
T2 sequence (P24530 27-442): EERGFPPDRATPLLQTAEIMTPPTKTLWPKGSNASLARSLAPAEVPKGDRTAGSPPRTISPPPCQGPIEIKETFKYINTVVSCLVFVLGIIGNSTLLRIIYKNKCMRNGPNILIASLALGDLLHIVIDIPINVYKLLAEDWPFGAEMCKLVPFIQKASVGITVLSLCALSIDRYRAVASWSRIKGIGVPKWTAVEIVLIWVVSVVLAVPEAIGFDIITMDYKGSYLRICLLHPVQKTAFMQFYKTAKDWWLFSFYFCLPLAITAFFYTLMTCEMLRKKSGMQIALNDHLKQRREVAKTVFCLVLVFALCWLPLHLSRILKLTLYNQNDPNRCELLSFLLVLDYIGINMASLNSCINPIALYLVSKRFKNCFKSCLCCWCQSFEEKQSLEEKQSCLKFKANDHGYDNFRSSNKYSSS
Nature of the test: binding of 125I-ET-1 to crude receptor membrane fraction from the human placenta (ETB). The following applies: human placenta membranes, 125I-ET-1, 25° C., 120 minutes, pH 7.0. The protocol:
as §1, §2

Another test addresses T3, phosphodiesterase III (Cavia porcellus, UniProt H0VIU9).
T3 construct: hearts excised from male Hartley strain guinea pigs (400-600 g); from tissue; host or cells: guinea pig heart, 40,000 g supernatant, DEAE-cellulose fraction
T3 sequence (H0VIU9 1-1132): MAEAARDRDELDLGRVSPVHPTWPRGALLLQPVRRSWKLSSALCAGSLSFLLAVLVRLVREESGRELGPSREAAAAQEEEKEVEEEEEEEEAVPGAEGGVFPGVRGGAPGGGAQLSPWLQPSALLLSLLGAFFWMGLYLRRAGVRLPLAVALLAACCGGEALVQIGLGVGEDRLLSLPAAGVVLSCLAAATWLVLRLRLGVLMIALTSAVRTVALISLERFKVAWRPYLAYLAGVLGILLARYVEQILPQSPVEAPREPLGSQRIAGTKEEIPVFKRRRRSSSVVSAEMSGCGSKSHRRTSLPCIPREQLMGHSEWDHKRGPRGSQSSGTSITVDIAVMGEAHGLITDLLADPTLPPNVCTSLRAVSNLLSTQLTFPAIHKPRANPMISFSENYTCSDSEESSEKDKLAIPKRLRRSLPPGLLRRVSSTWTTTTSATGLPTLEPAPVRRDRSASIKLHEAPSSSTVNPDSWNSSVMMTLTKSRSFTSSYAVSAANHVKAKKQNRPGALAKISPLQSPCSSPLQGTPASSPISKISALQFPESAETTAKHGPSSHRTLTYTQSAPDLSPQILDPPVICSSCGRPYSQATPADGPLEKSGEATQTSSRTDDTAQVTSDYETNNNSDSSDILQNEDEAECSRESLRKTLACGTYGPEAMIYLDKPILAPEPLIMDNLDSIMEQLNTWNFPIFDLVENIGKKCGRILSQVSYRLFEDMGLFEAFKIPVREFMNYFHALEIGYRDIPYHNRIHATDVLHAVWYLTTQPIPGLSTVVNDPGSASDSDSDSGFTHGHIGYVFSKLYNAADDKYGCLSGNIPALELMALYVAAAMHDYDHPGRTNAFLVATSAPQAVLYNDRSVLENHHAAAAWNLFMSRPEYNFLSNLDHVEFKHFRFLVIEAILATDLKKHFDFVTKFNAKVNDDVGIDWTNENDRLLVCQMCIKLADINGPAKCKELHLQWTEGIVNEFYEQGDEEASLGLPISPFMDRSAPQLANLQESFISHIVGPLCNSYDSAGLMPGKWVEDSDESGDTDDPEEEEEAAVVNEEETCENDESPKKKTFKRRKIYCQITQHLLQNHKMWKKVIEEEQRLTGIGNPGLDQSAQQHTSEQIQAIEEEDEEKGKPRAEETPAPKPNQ
Nature of the test: inhibitory effect on phosphodiesterase III ([3H] cAMP conversion, enzyme fraction from guinea pig hearts). The settings on record: for IC50: guinea pig heart enzyme, 0.1 μM [3H] cAMP, 30° C., 10 minutes, pH=8.0; for inhibitory effect on phosphodiesterase III: statement in words. It is filed as biochemical. The protocol:
Phosphodiesterase III was prepared according to the method of Frodsham et al. (Eur. J. Pharmacol., Vol. 211, pp. 383-391, 1992).
Specifically, hearts excised from male Hartley strain guinea pigs (400-600 g) were placed in 8 volumes of solution C [10 mM trishydroxymethyl)aminomethane-acetic acid buffer (pH=7.5), 2 mM magnesium chloride, 1 mM dithiothreitol, 2,000 units/ml aprotinin, 50 μM phenylmethylsulfonyl fluoride], minced with scissors, and homogenized three times for 10 seconds by means of a Polytron. The resulting homogenate was centrifuged at 40,000 g for 30 minutes, and the supernatant was applied onto a DEAE-cellulose column and eluted with a linear concentration gradient ranging from 0.2 M to 0.6 M sodium acetate (pH 6.5). The fractions eluted at 0.4-0.5 M were pooled and used as a phosphodiesterase III enzyme fraction.
Specifically, a test compound and the phosphodiesterase III enzyme fraction were added to 0.4 ml of a reaction solution [40 mM tris(hydroxymethyl)aminomethane-hydrochloric acid buffer (pH=8.0), 5 mM magnesium chloride, 1 mM dithiothreitol, 0.1 μM [^3 H] cAMP]. This mixture was reacted at 30° C. for 10 minutes. After completion of the reaction, 5'-nuclease was added thereto so as to convert [^3 H] 5'-AMP, which was the reaction product with phosphodiesterase III, to [^3 H] adenosine. Then, the [^3 H] cAMP and [^3 H] adenosine present in the reaction mixture were separated with the aid of an anion exchanger.

Another test relates to endothelin receptors. Nature of the test: antagonism to endothelin receptors (statement in words, no subtype). It is filed as binding. The protocol: as §1
as §2, with “The precipitate was suspended in solution A and used as a crude receptor membrane fraction, which was divided into portions and stored in a frozen state at -70° C. As a radioligand, 325 Bq of ^125 I-ET-1 (81.4 TBq/mmol; manufactured by DuPont-New England Nuclear, Boston, Mss., U.S.A) was placed in a test tube. Then, the crude receptor membrane fraction (20 μg as protein) and a test compound were added thereto.” left out, “The reaction was carried out in solution B [30 mM HEPES, 0.15 M NaCl, 5 mM MgCl2, 0.5 mg/ml bacitracin, 1 mg/ml bovine serum albumin, pH 7.0) at 25° C. for 120 minutes.” left out

`CCOCC(c1cccc(OCC)c1)n1nc(C(=O)O)c2c1-c1ccc(OCc3cncnc3)cc1CC2` (stereo not drawn) [Example 41, 4,5-dihydro-1-(3-ethoxy-α-ethoxymethyl-benzyl)-7-(5-pyrimidinylmethoxy)-[1H]-benz[g]indazole-3-carboxylic acid]: the values for the IC50 on ETA receptor and on ETB receptor were 0.0074 µM and 0.092 µM, respectively.

Regarding `CCOc1cccc(Cn2nc(C(=O)O)c3c2-c2ccc(OCc4cncnc4)cc2CC3)c1` [Example 14], the IC50 on ETA receptor turned out to be 0.0168 µM; on ETB receptor, 0.115 µM.

`CCOc1cccc(C(CC)n2nc(C(=O)O)c3c2-c2ccc(OCc4cncnc4)cc2CC3)c1` (stereo not drawn) [Example 34, 4,5-dihydro-1-(3-ethoxy-α-ethylbenzyl)-7-(5-pyrimidinylmethoxy)-[1H]-benz[g]indazole-3-carboxylic acid]: the results for the half-inhibitory concentration (IC50) on ETA receptor, on ETB receptor and against phosphodiesterase III were 0.0045 µM, 0.153 µM and 0.075 µM, respectively. On phosphodiesterase III, the “inhibitory effect on phosphodiesterase III” value was “inhibitory effect on phosphodiesterase III”. Besides, the “antagonism to endothelin receptors” value in the test with endothelin receptors was “excellent antagonism to endothelin receptors”.

On to `COc1cccc(Cn2nc(C(=O)O)c3c2-c2ccc(OCc4cncnc4)cc2CC3)c1` [Example 2, 4,5-dihydro-1-(3-methoxybenzyl)-7-(5-pyrimidinylmethoxy)-[1H]-benz[g]indazole-3-carboxylic acid], for which the results for the IC50 at ETA receptor and on ETB receptor were 0.031 µM and 0.14 µM, respectively.

For the molecule `CCOc1cccc(C(c2ccccn2)n2nc(C(=O)O)c3c2-c2ccc(OCc4cncnc4)cc2CC3)c1` (stereo not shown) [Example 70], the IC50 is 0.0025 µM on ETA receptor, 0.0113 µM at ETB receptor and 0.58 µM on phosphodiesterase III. On phosphodiesterase III, the “inhibitory effect on phosphodiesterase III” value was “inhibitory effect on phosphodiesterase III”. Also, the “antagonism to endothelin receptors” value in the test on endothelin receptors is recorded as “excellent antagonism to endothelin receptors”.

What is called IC50 is the concentration at which inhibition is half-maximal. A higher IC50 goes with weaker potency.
